Assay results from PubChem BioAssay (NCI).
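Test compounds were applied to cells in 96-well plates for 48 hours at 5 doses. The concentration for 50% growth inhibition is given as GI50. TGI is the concentration that stops growth completely.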

Tests used:
Experiment in all cases: growth of human tumour cells (NCI), 48 h
HCT-116 colon = test system: HCT-116 colon
NCI-H522 lung = test system: NCI-H522 lung
OVCAR-5 ovarian = test system: OVCAR-5 ovarian
HT29 colon = test system: HT29 colon
HL-60(TB) leukemia = test system: HL-60(TB) leukemia
HCC-2998 colon = test system: HCC-2998 colon
MALME-3M melanoma = test system: MALME-3M melanoma
NCI-H23 lung = test system: NCI-H23 lung
SK-MEL-2 melanoma = test system: SK-MEL-2 melanoma
NCI-H226 lung = test system: NCI-H226 lung

Compound	GI50 (HCT-116 colon) [µM]	TGI (HCT-116 colon) [µM]	GI50 (NCI-H522 lung) [µM]	TGI (NCI-H522 lung) [µM]	GI50 (OVCAR-5 ovarian) [µM]	TGI (OVCAR-5 ovarian) [µM]	GI50 (HT29 colon) [µM]	TGI (HT29 colon) [µM]	GI50 (HL-60(TB) leukemia) [µM]	TGI (HL-60(TB) leukemia) [µM]	GI50 (HCC-2998 colon) [µM]	TGI (HCC-2998 colon) [µM]	GI50 (MALME-3M melanoma) [µM]	TGI (MALME-3M melanoma) [µM]	GI50 (NCI-H23 lung) [µM]	TGI (NCI-H23 lung) [µM]	GI50 (SK-MEL-2 melanoma) [µM]	TGI (SK-MEL-2 melanoma) [µM]	GI50 (NCI-H226 lung) [µM]	TGI (NCI-H226 lung) [µM]
O=c1[nH]cc(CO)c(=O)[nH]1	> 100	> 100	> 100	> 100	> 100	> 100	> 100	> 100	> 100	> 100	> 100	> 100	> 100	> 100	> 100	> 100	> 100	> 100	–	–
Cc1cc(NS(=O)(=O)c2ccc(NC(=O)COc3ccc(-c4cc5ccccc5[nH]4)cc3)cc2)no1	1.84	5.01	1.79	4.09	2.26	5.68	1.73	3.44	2.84	32.6	2.07	4.94	1.5	3.85	1.91	5	1.86	3.76	2.14	9.88
CCCCCCCCn1ccc2cc(NC(=O)Cn3cc(CN4CCC(C)CC4)nn3)ccc21	1.57	2.93	1.73	3.48	1.63	3.42	1.73	3.32	1.77	3.58	1.74	3.24	1.66	3.12	2.04	4.34	1.85	3.53	1.75	3.83
Cc1cc(C(=O)N2CCN(C)CC2)c2c(=O)n(-c3ccccc3)c(=O)n(CC(O)CN3CCN(c4ncccn4)CC3)c2n1 (stereo unspecified)	> 100	> 100	> 100	> 100	> 100	> 100	> 100	> 100	> 100	> 100	> 100	> 100	> 100	> 100	> 100	> 100	> 100	> 100	> 100	> 100
O=c1c(-c2ccc3c(c2)OCO3)coc2c(CO)c(O)ccc12	2	4.94	4.55	20.8	3.3	10.5	16.9	44.8	2.25	5.9	2.01	3.89	1.57	3.47	4.87	24.5	2.25	5.87	1.81	4.46
Cc1ccn2c(-c3csc(Nc4cccc(O)c4)n3)c(C)nc2c1	0.397	15.1	0.32	3.22	9.29	> 81.2	4.13	18	0.343	22.1	2.81	17.4	0.444	25	1.01	19.7	0.72	20.4	14.1	57.4
COc1ccc(Oc2nc(Nc3ccc(N4CCOCC4)cc3)ncc2NC(=O)Nc2cc(OC)cc(OC)c2)cc1	1.14	3.27	3.94	21.7	11.6	> 33.3	1.42	6.69	10.8	> 33.3	2.11	7.16	0.969	3.27	2.69	23.4	4.11	15.9	3.84	11.8
Nc1nc2c(c(=O)[nH]1)N=C(COP(=O)(O)OP(=O)(O)O)CN2	–	> 100	–	> 100	–	> 100	–	> 100	–	> 100	–	> 100	–	> 100	–	> 100	–	> 100	–	> 100
Cc1ccc(-c2c3c(N)nc(-c4ccncc4)nc3nc3c2c(C)nn3-c2ccccc2)cc1	2.95	11.1	> 37.5	> 37.5	> 37.5	> 37.5	11.5	> 37.5	> 37.5	> 37.5	> 37.5	> 37.5	7.73	16.2	21.6	> 37.5	13.7	> 37.5	14	> 37.5
CCOC(=O)C1=C(C)NC(C)=C(C(=O)OCC)C1c1cc(Br)c(O)c(OC)c1	3.97	13.5	4.22	20.1	4.32	15.9	4.72	18.2	2.35	6.35	3.12	10.8	10.6	32.7	4.81	22.4	5.29	20.1	2.77	12.4
O=Cc1c[nH]c2ccc(-c3csc4ccccc34)cc12	3.6	> 100	3.23	> 100	88.1	> 100	3.34	> 100	2.48	8.38	15.5	> 100	4.39	37.5	18.2	> 100	2.65	> 100	3.7	> 100
C/C(=C\CCc1ccsc1)CC/C=C(\C)CCCN1CCN(CCO)CC1	2.71	9.26	1.91	4.71	4.04	17.6	2.04	5.01	2.01	4.14	1.97	3.63	1.87	3.73	3.37	13.4	–	–	5.68	24.3
CC(C)(C)C1CCC(CI)(N=[N+]=[N-])CC1 (stereo unspecified)	–	> 100	–	> 100	–	> 100	–	> 100	–	> 100	–	> 100	–	> 100	–	> 100	–	> 100	–	> 100
